Our source for the TGI and GI50 values is PubChem BioAssay (NCI).

Experiment in all cases: growth of human tumour cells (NCI), 48 h
Assay [1] concerns HCT-116 colon.
In assay [2] the test system is KM12 colon.
The subject of assay [3] is IGROV1 ovarian.
Assay [4] deals with SK-MEL-5 melanoma.
In assay [5] the test system is UO-31 renal.
The subject of assay [6] is M14 melanoma.
Assay [7] concerns UACC-62 melanoma.
Assay [8] deals with OVCAR-4 ovarian.
In assay [9] the test system is SK-MEL-2 melanoma.
Assay [10] has as its system SF-268 CNS.

Values joined by “and” are separate entries in the source; they are usually repeats but may differ in a detail not shown here. Equal entries are not always repeated.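 Dose response: 5 concentrations. Exposure: 48 h. Format: 96-well plates. Endpoint: linear interpolation; highest concentration if not reached. GI50 = concentration required for 50% inhibition of growth. TGI: total growth inhibition.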

For `CNC(=S)N/N=C/c1ccc([N+](=O)[O-])s1`, the TGI in assay [1], in [2], in [3], in assay [4], in assay [5] and in assay [6] was above 10 µM in each case. The TGI in assay [7], in assay [8], in assay [9] and in [10] was above 10 µM throughout.
With `COc1ccc2c(c1)[n+]([O-])c(/C(C)=N/NC(=O)CC#N)c[n+]2[O-]`, the TGI in assay [1], in [2], in assay [3], in [4], in [5] and in assay [6] was above 100 µM throughout. Further, the TGI in assay [7], in assay [8], in assay [9] and in assay [10] was above 100 µM in each case.
In the case of `Fc1cccc(Cl)c1/C=N\N=C1c2ccccc2-c2ccccc21`, the TGI in [1], in [2], in assay [3], in assay [4], in [5] and in assay [6] was above 100 µM throughout. Moreover, the TGI in assay [7], in assay [8], in assay [9] and in assay [10] was above 100 µM in each case.
As for `CCN(CC)c1ccc2c(c1)Nc1cc(=C(C#N)C#N)c3ccccc3c1=N2`, the TGI in assay [1], in assay [2], in assay [3], in assay [4], in assay [5] and in assay [6] was above 100 µM in each case. Besides, the TGI in assay [7], in [8], in [9] and in assay [10] was above 100 µM in each case.
`CC(C)(C)NC(=O)[C@H]1C[C@H]2CCCC[C@H]2CN1C[C@@H](O)[C@H](Cc1ccccc1)NC(=O)[C@H](CC(N)=O)NC(=O)c1ccc2ccccc2n1`: the GI50 in [1] was 17 µM; in assay [2] it was 14 µM; in [3], 15.4 µM; in assay [4], 14.5 µM; in assay [5] it was 15.5 µM; in assay [6], 13.3 µM. Further, the GI50 in assay [7] was 13.6 µM; in [8], 14 µM; in assay [9] it was 22.7 µM; in assay [10], 13 µM. In addition, the TGI is above 47.1 µM in assay [1]; 34.8 µM in assay [2]; 38.8 µM in [3]; 30 µM in assay [4]; 29.9 µM in assay [5]; 28 µM in [6]. Further, the TGI is 27.7 µM in assay [7], 31.5 µM in assay [8], above 65.7 µM in [9] and 30.1 µM in assay [10].
Regarding `COC(=O)C1=C(CS(=O)c2ccccc2[N+](=O)[O-])ON(C)C1c1ccccc1` (centres undefined), the TGI in [1], in [2], in [3], in assay [4], in assay [5] and in assay [6] was above 100 µM each time. Moreover, the TGI is above 100 µM in assay [7], above 100 µM in assay [8], above 100 µM in assay [9] and 94.6 µM in assay [10].
In the case of `C1=CC=C2NCCOCCNC3=CC=CC=CC3=NCCOCCN=C2C=C1`, the TGI in assay [1] is above 100 µM; in assay [2], above 100 µM; in assay [3] it was above 100 µM; in assay [4], above 100 µM; in assay [5], above 100 µM; in assay [6], 41.6 µM. The TGI in [7], in [8], in assay [9] and in [10] was above 100 µM in each case.
Consider `CN[C@@H]1C[C@H]2O[C@@](C)([C@@H]1OC)n1c3ccccc3c3c4c(c5c6ccccc6n2c5c31)C(=O)N[C@@H]4O`, for which the TGI was 2.42 µM in assay [1]; 0.0617 µM and 0.341 µM in assay [3]; 0.766 µM in assay [4]; 0.0645 µM in [5]; 0.3 µM and 1.25 µM in [6]; 0.908 µM in assay [7]. The TGI in [9] was 0.245 µM and 0.123 µM. Further, the GI50 was 0.0185 µM in [2]; 0.0129 µM and 0.0461 µM in [3]; 0.0311 µM in assay [6]; 0.0286 µM in [8]; 0.0348 µM in assay [9]; 0.008 µM in [10].
In the case of `O=C1c2ccccc2-n2c1nc1ccccc1c2=O`, the TGI in [1] was 79.6 µM; in assay [2], above 67.1 µM; in assay [3] it was above 92.1 µM; in assay [4], 26 µM; in assay [5], 42.9 µM; in assay [6], 11.1 µM. The TGI in [7] is 14.5 µM; in [8], 53.7 µM; in [9], 22.9 µM; in [10] it was above 100 µM.
Consider `COc1cc(Cn2c(-c3nonc3N)nc3ccccc32)ccc1C`, for which the GI50 in [1] is 0.46 µM; in assay [2], 0.468 µM; in assay [3], 1.22 µM; in assay [4] it was 0.354 µM; in [5], 0.58 µM; in assay [6], 0.426 µM. In addition, the GI50 was 0.848 µM in assay [7], 0.731 µM in [8], 0.417 µM in assay [9] and 0.825 µM in assay [10]. The TGI in assay [1] was above 100 µM; in assay [2] it was above 100 µM; in [3] it was above 61.6 µM; in [4], 19.8 µM; in assay [5], above 100 µM; in [6] it was 34.8 µM. Further, the TGI in assay [7] is above 100 µM; in assay [8] it was above 95.2 µM; in assay [9] it was 9.97 µM; in assay [10], above 100 µM.
As for `O=c1ccc(=O)c2c(=O)c3ccccc3c(=O)c1=2`, the TGI in assay [1] is 61.1 µM; in assay [2] it was above 100 µM; in assay [3] it was above 100 µM; in assay [4] it was 35.5 µM; in assay [5], above 100 µM; in assay [6], above 100 µM. Further, the TGI in assay [7], in [8], in assay [9] and in assay [10] was above 100 µM each time.
Consider `Cn1c(=O)c2c(ncn2CN2CCN(Cn3cnc4c3c(=O)n(C)c(=O)n4C)CC2)n(C)c1=O`, for which the TGI is 34.6 µM in assay [1]; above 100 µM in assay [2]; above 100 µM in assay [3]; above 100 µM in assay [4]; above 100 µM in assay [5]; above 100 µM in assay [6]. Besides, the TGI in [7], in assay [8], in assay [9] and in [10] was above 100 µM in each case.
For `CC(C)[C@H]1C(=O)N[C@@H](CCCN=C(N)N)C(=O)NCC(=O)N[C@@H](CC(=O)O)C(=O)N[C@H](Cc2ccccc2)C(=O)N1C`, the GI50 in assay [1] was 1.86 µM; in assay [2], above 100 µM; in assay [3] it was above 62.2 µM; in assay [4], 0.366 µM; in [5], above 73.2 µM; in assay [6] it was above 100 µM. The GI50 in assay [7] was above 100 µM; in assay [8], above 100 µM; in assay [9] it was 1.35 µM; in assay [10] it was 7.07 µM. The TGI is above 33.4 µM in assay [1]; above 100 µM in assay [2]; above 100 µM in assay [3]; 1.33 µM in assay [4]; above 100 µM in [5]; above 100 µM in assay [6]. In addition, the TGI was above 100 µM in assay [7], above 100 µM in assay [8], 5.78 µM in [9] and above 100 µM in assay [10].
`C/C(=N\NC(N)=S)c1nc2ccc(Cl)cc2[nH]1`: the GI50 in assay [1] was 2.11 µM; in [2], 2.03 µM; in [3], 3.06 µM; in [4], 2.7 µM; in assay [5], 0.3 µM; in [6] it was 1.8 µM. Also, the GI50 in assay [7] was 2.2 µM; in assay [8], 1.31 µM; in [9], 2.81 µM; in assay [10], 2.03 µM. In addition, the TGI in [1] came to 8.85 µM; in assay [2], 16.2 µM; in assay [3], 17.8 µM; in assay [4] it was 22.4 µM; in assay [5] it was 3.27 µM; in assay [6] it was 28.5 µM. Also, the TGI in assay [7] worked out at 33.8 µM; in assay [8], 19.9 µM; in assay [9], 44.6 µM; in assay [10], 11.3 µM.
With `CCN(CC)CCNc1n[n+]([O-])c2ccccc2[n+]1[O-]`, the TGI was 26.6 µM and 31 µM in assay [1]; 25.2 µM and 29 µM in [2]; 10.3 µM and 17 µM in [3]; 4.86 µM and 3.31 µM in assay [4]; > 79.4 µM and 57.1 µM in [5]; 21 µM and 28.7 µM in assay [6]. Also, the TGI in assay [7] was 22.2 µM and 21.2 µM; in assay [8] it was 11.2 µM and 73.6 µM; in assay [9], 13.2 µM and 19.1 µM; in [10], 48.4 µM and > 100 µM. In addition, the GI50 in assay [9] is 2.34 µM and 5.13 µM.
With `C=C1C(=O)OC2/C=C(\C=O)CC/C=C(\C)C(O)C[C@@H]12` (some centres undefined), the TGI in assay [1] was 3.46 µM; in [2], 18.5 µM; in assay [3] it was 32.3 µM; in assay [4], 22.4 µM; in assay [5] it was 26.8 µM; in [6] it was 12.4 µM. Besides, the TGI in assay [7] worked out at 18.5 µM; in [8], 27.5 µM; in assay [9], 25 µM; in assay [10], 14.7 µM.
